In ChEMBL document CHEMBL4004877, “Synthesis and biological evaluation of chalcone, dihydrochalcone, and 1,3-diarylpropane analogs as anti-inflammatory agents” (Bioorg Med Chem Lett, 2017):
Converted amounts (≈) assume the structure as drawn. The source made the active and inactive calls. The rule behind the calls is not given here.

Assays:
RAW264.7 [1] = assay: Antiinflammatory activity in mouse RAW264.7 cells assessed as inhibition of LPS induced iNOS-dependent nitric oxide production at 1.25 ug/ml after 24 hrs by Griess assay relative to control; type: functional; conditions: RAW264.7, 24 h
RAW264.7 [2] = assay: Antiinflammatory activity in mouse RAW264.7 cells assessed as inhibition of LPS induced iNOS-dependent nitric oxide production at 2.5 ug/ml after 24 hrs by Griess assay relative to control; type: functional; conditions: RAW264.7, 24 h
RAW264.7 [3] = assay: Antiinflammatory activity in mouse RAW264.7 cells assessed as inhibition of LPS induced iNOS-dependent nitric oxide production at 5 ug/ml after 24 hrs by Griess assay relative to control; type: functional; conditions: RAW264.7, 24 h
RAW264.7 [4] = assay: Antiinflammatory activity in mouse RAW264.7 cells assessed as inhibition of LPS induced iNOS-dependent nitric oxide production at 10 ug/ml after 24 hrs by Griess assay relative to control; type: functional; conditions: RAW264.7, 24 h
RAW264.7 [5] = assay: Antiinflammatory activity in mouse RAW264.7 cells assessed as inhibition of LPS induced iNOS-dependent nitric oxide production after 24 hrs by Griess assay; type: functional, cell-based; conditions: RAW264.7, 24 h
[6] = Cytotoxicity against LPS-stimulated mouse RAW264.7 cells assessed as cell viability at 1.25 ug/ml after 24 hrs by MTT assay relative to control; type: cell-based; conditions: LPS-stimulated RAW264.7 cells, read-out: Activity
[7] = Cytotoxicity against LPS-stimulated mouse RAW264.7 cells assessed as cell viability at 2.5 ug/ml after 24 hrs by MTT assay relative to control; type: cell-based; conditions: LPS-stimulated RAW264.7 cells, read-out: Activity
[8] = Cytotoxicity against LPS-stimulated mouse RAW264.7 cells assessed as cell viability at 5 ug/ml after 24 hrs by MTT assay relative to control; type: cell-based; conditions: LPS-stimulated RAW264.7 cells, read-out: Activity
[9] = Cytotoxicity against LPS-stimulated mouse RAW264.7 cells assessed as cell viability at 10 ug/ml after 24 hrs by MTT assay relative to control; type: cell-based; conditions: LPS-stimulated RAW264.7 cells, read-out: Activity
RAW264.7 [10] = assay: Inhibition of iNOS expression in LPS-stimulated mouse RAW264.7 cells after 24 hrs by Western blot method; type: functional, cell-based
RAW264.7 [11] = assay: Inhibition of COX2 expression in LPS-stimulated mouse RAW264.7 cells at 2.5 to 10 ug/ml after 24 hrs by Western blot method; type: functional, cell-based
RAW264.7 [12] = assay: Inhibition of IkappaB-alpha expression in LPS-stimulated mouse RAW264.7 cells at 2.5 to 10 ug/ml preincubated for 1 hr followed by LPS challenge measured after 24 hrs by Western blot method; type: functional, cell-based
Mus musculus [13] = organism: Mus musculus; assay: Inhibition of ERK phosphorylation in LPS-stimulated mouse RAW264.7 cells at 2.5 to 10 ug/ml preincubated for 1 hr followed by LPS challenge measured after 24 hrs by Western blot method
Mus musculus [14] = organism: Mus musculus; assay: Inhibition of JNK phosphorylation in LPS-stimulated mouse RAW264.7 cells at 2.5 to 10 ug/ml preincubated for 1 hr followed by LPS challenge measured after 24 hrs by Western blot method
[15] = biological target: MAP kinase p38 (Mus musculus) (UniProt P47811+O08911+Q9WUI1+Q9Z1B7); assay: Inhibition of p38 phosphorylation in LPS-stimulated mouse RAW264.7 cells at 2.5 to 10 ug/ml preincubated for 1 hr followed by LPS challenge measured after 24 hrs by Western blot method
RAW264.7 [16] = assay: Effect on non-phosphorylated ERK in LPS-stimulated mouse RAW264.7 cells at 2.5 to 10 ug/ml preincubated for 1 hr followed by LPS challenge measured after 24 hrs by Western blot method; type: cell-based; conditions: raw264.7, 24 h
RAW264.7 [17] = assay: Effect on non-phosphorylated JNK in LPS-stimulated mouse RAW264.7 cells at 2.5 to 10 ug/ml preincubated for 1 hr followed by LPS challenge measured after 24 hrs by Western blot method; type: cell-based; conditions: raw264.7, 24 h
RAW264.7 [18] = assay: Effect on non-phosphorylated p38 in LPS-stimulated mouse RAW264.7 cells at 2.5 to 10 ug/ml preincubated for 1 hr followed by LPS challenge measured after 24 hrs by Western blot method; type: cell-based; conditions: raw264.7, 24 h

IC50 (RAW264.7 [5]) | inhibition (Mus musculus [13]) | inhibition (Mus musculus [14]) | inhibition [15] | Structure (SMILES) | inhibition at 1.25 µg/mL (RAW264.7 [1]) | inhibition at 2.5 µg/mL (RAW264.7 [2]) | inhibition at 5 µg/mL (RAW264.7 [3]) | inhibition at 10 µg/mL (RAW264.7 [4]) | viability at 24 h, 1.25 ug/ml [6] | viability at 24 h, 2.5 ug/ml [7] | viability at 24 h, 5 ug/ml [8] | viability at 24 h, 10 ug/ml [9] | inhibition (RAW264.7 [10]) | inhibition (RAW264.7 [11]) | inhibition (RAW264.7 [12]) | Activity (RAW264.7 [16]) | Activity (RAW264.7 [17]) | Activity (RAW264.7 [18])
1.97 µg/mL (≈ 6.52 µM) | Active | Active | Active | COc1ccc(CCCc2ccc(OC)c(OC)c2)c(O)c1 | 29.6% | 60.5% | 69.2% | 75.5% | 97.9% | 91.7% | 88.9% | 44.5% | Dose-dependent effect | Active | inactive | Non-Toxic | Non-Toxic | Non-Toxic
> 10 µg/mL |  |  |  | COc1ccc(OC)c(CCCc2cccc(O)c2)c1 | 1.5% | 19.9% | 36.8% | 38.9% | 101% | 98.2% | 93.5% | 92.2% |  |  |  |  |  | 
4.03 µg/mL (≈ 12.1 µM) |  |  |  | COc1ccc(CCCc2ccc(OC)c(OC)c2OC)c(O)c1 | 33.3% | 34.9% | 56.8% | 68.1% | 96.3% | 95.5% | 84.5% | 36.7% |  |  |  |  |  | 
1.25 µg/mL (≈ 4.19 µM) |  |  |  | COc1ccc(C(=O)/C=C/c2ccc3c(c2)OCO3)c(O)c1 | 50.2% | 5.7% | 3% | 8.6% | 96.4% | 91.7% | 75.2% | 72% |  |  |  |  |  | 
4.73 µg/mL (≈ 16.6 µM) |  |  |  | COc1ccc(/C=C/C(=O)c2ccc(OC)cc2O)cc1 | 9.4% | 3.5% | 54% | 78.2% | 93.3% | 72.3% | 75.2% | 72.6% |  |  |  |  |  | 
2.57 µg/mL (≈ 8.5 µM) |  |  |  | COc1cc(CCCc2cccc(OC)c2OC)ccc1O | 43.3% | 49.5% | 60.7% | 89.4% | 99.6% | 97.8% | 97% | 68.9% |  |  |  |  |  | 
> 10 µg/mL |  |  |  | COc1ccc(CCC(=O)c2cccc(O)c2)cc1 | 5.1% | 11% | 20.1% | 40.5% | 97.5% | 97.1% | 94.5% | 86.3% |  |  |  |  |  | 
> 10 µg/mL |  |  |  | COc1cc(/C=C/C(=O)c2cccc(O)c2)ccc1O | 3% | 3.2% | 3.2% | 12.2% | 96.9% | 94% | 63.8% | 62.6% |  |  |  |  |  | 
5.08 µg/mL (≈ 18.7 µM) |  |  |  | COc1ccc(CCCc2ccc(O)c(OC)c2)cc1 | 35.9% | 42.9% | 49% | 89.8% | 99.2% | 97.8% | 96.4% | 66.3% |  |  |  |  |  | 
9.56 µg/mL (≈ 35.6 µM) |  |  |  | O=C(/C=C/c1ccc2c(c1)OCO2)c1ccc(O)cc1 | 4.9% | 1.1% | 14.1% | 52.5% | 99.2% | 95.2% | 88.5% | 68% |  |  |  |  |  | 
> 10 µg/mL |  |  |  | COc1ccc(CCCc2ccc3c(c2)OCO3)c(OC)c1 | 16.9% | 20.1% | 28% | 44.6% | 99.1% | 97.7% | 97.2% | 94.7% |  |  |  |  |  | 
> 10 µg/mL |  |  |  | COc1ccc(/C=C/C(=O)c2ccc(OC)c(OC)c2)cc1OC | 0.2% | 1.7% | 2% | 3.3% | 94% | 91.9% | 81.3% | 60.4% |  |  |  |  |  | 
4.12 µg/mL (≈ 14.4 µM) |  |  |  | COc1ccc(CCCc2ccc3c(c2)OCO3)c(O)c1 | 32.6% | 39.4% | 54.1% | 85.9% | 97.5% | 95.3% | 71.4% | 15.6% |  |  |  |  |  | 
9.9 µg/mL (≈ 32.7 µM) |  |  |  | COc1ccc(CCCc2cc(OC)ccc2OC)c(O)c1 | 6.2% | 31.7% | 36.4% | 50.2% | 102% | 102% | 98.5% | 42.5% |  |  |  |  |  | 
2.43 µg/mL (≈ 7.78 µM) |  |  |  | COc1ccc(C(=O)/C=C/c2ccc3c(c2)OCO3)c(OC)c1 | 2.4% | 51.9% | 52% | 62.4% | 92.7% | 70.4% | 69.2% | 66.2% |  |  |  |  |  | 
